Measurements taken from ChEMBL document CHEMBL4145694 (J Med Chem, 2018).
Active and inactive are the calls of the source. The calls are words filed in the database; no cut-off is given here.

Assays:
[1] = biological target: Kappa-type opioid receptor (Homo sapiens) (UniProt P41145); assay: Antagonist activity at human kappa-opioid receptor expressed in CHO cell membranes assessed as inhibition of U69593-induced [35S]GTPgammaS binding incubated for 60 mins by scintillation counting method; type: functional
[2] = biological target: Kappa-type opioid receptor (Homo sapiens) (UniProt P41145); assay: Agonist activity at human kappa-opioid receptor expressed in CHO cell membranes assessed as stimulation of [35S]GTPgammaS binding at 10 uM incubated for 60 mins by scintillation counting method; type: functional
[3] = species: Homo sapiens; assay: Selectivity index, ratio of Ke for antagonist activity at human mu-opioid receptor expressed in CHO cell membranes to Ke for antagonist activity at human kappa-opioid receptor expressed in CHO cell membranes; type: cell-based
[4] = biological target: Mu-type opioid receptor (Homo sapiens) (UniProt P35372); assay: Agonist activity at human mu-opioid receptor expressed in CHO cell membranes assessed as stimulation of [35S]GTPgammaS binding at 10 uM incubated for 60 mins by scintillation counting method; type: functional
[5] = biological target: Mu-type opioid receptor (Homo sapiens) (UniProt P35372); assay: Antagonist activity at human mu-opioid receptor expressed in CHO cell membranes assessed as inhibition of DAMGO-induced [35S]GTPgammaS binding incubated for 60 mins by scintillation counting method; type: functional
[6] = biological target: Delta-type opioid receptor (Homo sapiens) (UniProt P41143); assay: Agonist activity at human delta-opioid receptor expressed in CHO cell membranes assessed as stimulation of [35S]GTPgammaS binding at 10 uM incubated for 60 mins by scintillation counting method; type: functional
[7] = biological target: Delta-type opioid receptor (Homo sapiens) (UniProt P41143); assay: Antagonist activity at human delta-opioid receptor expressed in CHO cell membranes assessed as inhibition of DPDPE-induced [35S]GTPgammaS binding incubated for 60 mins by scintillation counting method; type: functional
[8] = Ratio of AUClast in brain to plasma of Sprague-Dawley CD rat at 5 mg/kg, sc administered as single dose measured over 1 to 168 hrs post dose by LC/MS-MS method; type: ADME, organism-based; details: Sprague-Dawley CD, brain and plasma, read-out: BPR
[9] = species: Homo sapiens; assay: Selectivity index, ratio of Ke for antagonist activity at human delta-opioid receptor expressed in CHO cell membranes to Ke for antagonist activity at human kappa-opioid receptor expressed in CHO cell membranes; type: cell-based

Delta-type opioid receptor (Homo sapiens), sequence (P41143 whole entry): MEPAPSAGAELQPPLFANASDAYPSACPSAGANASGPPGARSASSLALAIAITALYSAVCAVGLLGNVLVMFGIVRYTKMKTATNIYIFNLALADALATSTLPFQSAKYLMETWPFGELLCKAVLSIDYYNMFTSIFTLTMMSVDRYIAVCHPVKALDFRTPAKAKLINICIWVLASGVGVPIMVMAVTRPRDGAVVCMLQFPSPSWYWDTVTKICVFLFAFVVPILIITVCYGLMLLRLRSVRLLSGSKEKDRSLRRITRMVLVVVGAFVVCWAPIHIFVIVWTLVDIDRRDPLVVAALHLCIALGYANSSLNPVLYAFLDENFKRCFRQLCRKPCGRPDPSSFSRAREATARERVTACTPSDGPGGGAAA
Mu-type opioid receptor (Homo sapiens), sequence (P35372 whole entry): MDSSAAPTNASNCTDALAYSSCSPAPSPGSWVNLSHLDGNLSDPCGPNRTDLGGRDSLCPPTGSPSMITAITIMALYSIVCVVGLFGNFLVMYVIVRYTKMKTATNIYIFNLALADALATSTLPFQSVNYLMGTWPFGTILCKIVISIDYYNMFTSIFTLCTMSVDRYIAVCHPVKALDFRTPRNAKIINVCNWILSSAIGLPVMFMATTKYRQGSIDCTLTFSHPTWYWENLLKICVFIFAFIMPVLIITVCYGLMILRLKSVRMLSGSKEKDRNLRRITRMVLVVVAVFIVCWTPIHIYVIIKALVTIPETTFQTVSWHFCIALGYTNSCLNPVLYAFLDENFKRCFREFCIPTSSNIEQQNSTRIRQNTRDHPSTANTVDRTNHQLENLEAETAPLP
Kappa-type opioid receptor (Homo sapiens), sequence (P41145 whole entry): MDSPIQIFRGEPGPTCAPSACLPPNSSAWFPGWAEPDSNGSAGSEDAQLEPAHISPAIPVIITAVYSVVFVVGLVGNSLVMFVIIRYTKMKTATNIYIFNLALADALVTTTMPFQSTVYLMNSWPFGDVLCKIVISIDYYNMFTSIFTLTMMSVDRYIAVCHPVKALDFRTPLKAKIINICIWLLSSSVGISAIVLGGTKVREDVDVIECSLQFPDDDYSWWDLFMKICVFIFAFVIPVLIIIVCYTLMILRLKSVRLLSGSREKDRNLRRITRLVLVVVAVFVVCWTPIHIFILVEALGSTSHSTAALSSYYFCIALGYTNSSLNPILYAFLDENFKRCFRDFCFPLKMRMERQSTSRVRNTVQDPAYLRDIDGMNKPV

| Compound | Activity [2] | Activity [4] | Activity [6] | Ke [7] | Ke [1] | Ratio Ke [3] | Ke [5] | Kp [8] | Ratio Ke [9] |
| --- | --- | --- | --- | --- | --- | --- | --- | --- | --- |
| CC(C)[C@@H](CN1CCC(C(N)=O)CC1)NC(=O)[C@H]1Cc2ccc(O)cc2CN1 | inactive | inactive | inactive |  | 3.22 nM | 40 | 129 nM |  |  |
| CC(C)[C@@H](CN1CC=CCC1)NC(=O)[C@H]1Cc2ccc(O)cc2CN1 | inactive | inactive | inactive |  |  |  |  |  |  |
| CC1CC(C)CN(C[C@@H](NC(=O)[C@H]2Cc3ccc(O)cc3CN2)C(C)C)C1 (stereo not given in full) | inactive | inactive | inactive |  |  |  |  |  |  |
| CC(C)[C@@H](CN1CCC(N(C)C)CC1)NC(=O)[C@H]1Cc2ccc(O)cc2CN1 | inactive | inactive | inactive |  | 8.08 nM | 39 | 318 nM |  |  |
| CC(C)CN(CC(C)C)C[C@@H](NC(=O)[C@H]1Cc2ccc(O)cc2CN1)C(C)C | inactive | inactive | inactive |  | 137 nM |  |  |  |  |
| CC(C)[C@@H](CN1CC[C@@](C)(c2cccc(O)c2)[C@@H](C)C1)NC(=O)[C@H]1Cc2ccc(O)cc2CN1 [JDTIC] |  |  |  |  |  |  |  | 7 |  |
| CC(C)[C@@H](CN1CCN(C)CC1)NC(=O)[C@H]1Cc2ccc(O)cc2CN1 | inactive | inactive | inactive |  | 98.8 nM | 9 | 915 nM |  |  |
| CCN(CC)C[C@@H](NC(=O)[C@H]1Cc2ccc(O)cc2CN1)C(C)C | inactive | inactive | inactive |  |  | 16.5 |  |  |  |
| CC(C)[C@@H](CN1CCC(C#N)CC1)NC(=O)[C@H]1Cc2ccc(O)cc2CN1 | inactive | inactive | inactive |  | 12.7 nM | 51 | 647 nM |  |  |
| CC(C)[C@@H](CN1CCOCC1)NC(=O)[C@H]1Cc2ccc(O)cc2CN1 | inactive | inactive | inactive |  | 396 nM |  |  |  |  |
| O=C(NCCN1CCCCC1)[C@H]1Cc2ccc(O)cc2CN1 | inactive | inactive | inactive |  |  |  |  |  |  |
| CC(C)[C@@H](CN1CCCCC1)NC(=O)[C@H]1Cc2ccc(O)cc2CN1 | inactive | inactive | inactive |  |  |  |  |  |  |
| CC(C)[C@@H](CN1CCCCC1=O)NC(=O)[C@H]1Cc2ccc(O)cc2CN1 | inactive | inactive | inactive |  |  |  |  |  |  |
| CC(C)[C@@H](CN1CCCCC1C)NC(=O)[C@H]1Cc2ccc(O)cc2CN1 (mixture of isomers) | inactive | inactive | inactive |  | 15.1 nM | 3 | 44.9 nM |  |  |
| COC1CCN(C[C@@H](NC(=O)[C@H]2Cc3ccc(O)cc3CN2)C(C)C)CC1 | inactive | inactive | inactive |  | 6.53 nM | 30 | 198 nM |  |  |
| CC1CCN(C[C@@H](NC(=O)[C@H]2Cc3ccc(O)cc3CN2)C2CC2)CC1 | inactive | inactive | inactive |  |  |  |  |  |  |
| CC(C)[C@@H](CN1CCCCCC1)NC(=O)[C@H]1Cc2ccc(O)cc2CN1 | inactive | inactive | inactive |  |  |  |  |  |  |
| CC1=CCN(C[C@@H](NC(=O)[C@H]2Cc3ccc(O)cc3CN2)C(C)C)CC1 | inactive | inactive | inactive |  |  |  |  |  |  |
| CC(C)[C@@H](CN1C2CCC1CC2)NC(=O)[C@H]1Cc2ccc(O)cc2CN1 | inactive | inactive | inactive |  |  |  |  |  |  |
| CC(C)[C@@H](CN1CC[C@@](C)(c2cccc(O)c2)[C@@H](C)C1)NC(=O)[C@H]1Cc2ccc(O)cc2CN1C |  |  |  |  |  | 1310 |  |  | 3070 |
| CC(C)[C@@H](CN1CCC(C)(C)CC1)NC(=O)[C@H]1Cc2ccc(O)cc2CN1 | inactive | inactive | inactive | 847 nM |  | 40 | 142 nM |  | > 237 |
| CC(C)[C@@H](CN1CCC(C(F)(F)F)CC1)NC(=O)[C@H]1Cc2ccc(O)cc2CN1 | inactive | inactive | inactive |  | 4.69 nM | 14 | 67.9 nM |  |  |
| CCC1CCN(C[C@@H](NC(=O)[C@H]2Cc3ccc(O)cc3CN2)C(C)C)CC1 | inactive | inactive | inactive | 2490 nM | 2.48 nM | 30 | 74.8 nM |  | 1000 |
| CC(C)[C@@H](CN1CCC(C(F)F)CC1)NC(=O)[C@H]1Cc2ccc(O)cc2CN1 | inactive | inactive | inactive |  | 3.45 nM |  | 70.9 nM |  |  |
| CC1=C(C)CN(C[C@@H](NC(=O)[C@H]2Cc3ccc(O)cc3CN2)C(C)C)CC1 | inactive | inactive | inactive |  |  |  |  |  |  |
| CCCN(CCC)C[C@@H](NC(=O)[C@H]1Cc2ccc(O)cc2CN1)C(C)C | inactive | inactive | inactive |  |  |  |  |  |  |
| CC(C)[C@@H](CN1CCC(F)(F)CC1)NC(=O)[C@H]1Cc2ccc(O)cc2CN1 | inactive | inactive | inactive |  | 11.8 nM | 51 | 604 nM |  |  |

The next lines start with results.

| Activity [2] | Activity [4] | Activity [6] | Ke [7] | Compound | Ke [1] | Ratio Ke [3] | Ke [5] | Kp [8] | Ratio Ke [9] |
| --- | --- | --- | --- | --- | --- | --- | --- | --- | --- |
| inactive | inactive | inactive |  | CC1CCN(C[C@@H](NC[C@H]2Cc3ccc(O)cc3CN2)C(C)C)CC1 |  |  |  |  |  |
| inactive | inactive | inactive | > 3000 nM | CC1CCN(C[C@H](NC(=O)[C@H]2Cc3ccc(O)cc3CN2)C(C)C)CC1 |  |  |  |  |  |
| inactive | inactive | inactive |  | CC1CCCN(C[C@@H](NC(=O)[C@H]2Cc3ccc(O)cc3CN2)C(C)C)C1 (mixture of isomers) |  |  |  |  |  |
| inactive | inactive | inactive |  | CC(C)[C@@H](CN1CCCC1)NC(=O)[C@H]1Cc2ccc(O)cc2CN1 |  |  |  |  |  |
| inactive | inactive | inactive | > 3000 nM | CC1CCN(C[C@@H](NC(=O)[C@@H]2Cc3ccc(O)cc3CN2)C(C)C)CC1 |  |  |  |  |  |
| inactive | inactive | inactive | > 3000 nM | CC1CCN(C[C@H](NC(=O)[C@@H]2Cc3ccc(O)cc3CN2)C(C)C)CC1 |  |  |  |  |  |
| inactive | inactive | inactive |  | CC1CCN(C[C@@H](NC(=O)[C@@H]2CCc3cc(O)ccc3C2)C(C)C)CC1 |  |  |  |  |  |
| inactive | inactive | inactive |  | CC(C)[C@@H](CN1CC[C@H](C)[C@@H](C)C1)NC(=O)[C@H]1Cc2ccc(O)cc2CN1 (mixture of isomers) |  |  |  |  |  |
| inactive | inactive | inactive |  | CC1CCN(C[C@@H](NC(=O)[C@H](N)Cc2ccc(O)cc2)C(C)C)CC1 |  |  |  |  |  |
| inactive | inactive | inactive |  | CC1CCN(C[C@@H](NC(=O)c2ccc3cc(O)ccc3c2)C(C)C)CC1 |  |  |  |  |  |
| inactive | inactive | inactive |  | CC(C)[C@@H](CN1CC[C@@H](C)[C@@H](C)C1)NC(=O)[C@H]1Cc2ccc(O)cc2CN1 (mixture of isomers) |  |  |  |  |  |
| inactive | inactive | inactive |  | CC1=CCCN(C[C@@H](NC(=O)[C@H]2Cc3ccc(O)cc3CN2)C(C)C)C1 |  |  |  |  |  |
